The values below come from patent EP4702982A1, “VITALITY IMPROVING AGENT, COMPOSITION FOR IMPROVING VITALITY, AND FOOD COMPOSITION FOR IMPROVING VITALITY” (Med R&D Co. Ltd, priority 2023, dated 2024).

The test system of data set [1] is human primary hair papilla cells (HFDPC). Nature of the data set: Cytotoxicity (MTT cell viability) in hair papilla cells. It is filed as cell-based. Also noted: key: -: No cytotoxicity was observed.; ±: The cell viability was reduced by 40% or more at a volume of 1/100.; +: The cell viability was reduced by 10% or more at a volume of 1/10,000.; ++: The cell viability was reduced by 40% or more at a volume of 1/10,000. Particulars: same method as Experimental Example 4. How it is done:
The cytotoxicity of the pine needle extract of Production Example 1 was examined. Regarding the cells, human primary hair papilla cells (HFDPC, purchased from PromoCell GmbH), which are mesenchymal cells isolated from the papilla of normal human scalp hair follicles, were used. HFDPCs were seeded on a collagen-coated 96-well plate at a concentration of 5 × 10^4 cells/well and incubated at 37°C in a humidified atmosphere of 5% CO2. As a culture medium, a hair papilla cell growth culture medium to which growth factors (bovine fetal serum, insulin, transferrin, triiodothyronine, bovine pituitary extract, and a cyproterone solution) had been added was used. After 24 hours, the culture medium for the cells was replaced with a culture medium to which a pine needle extract was added at a volume of 0 (control), 1/6,000, 1/5,000, 1/4,000, 1/3,000, 1/2,000, 1/1,000, 1/500, 1/250, or 1/100, and the cells were incubated for 48 hours. […] Specifically, an MTT reagent (5 mg/mL) was added to the cells, the cells were incubated for 8 hours, subsequently 10% sodium dodecyl sulfate (SDS) was added thereto, and the cells were incubated overnight. Thereafter, the absorbance at 570 nm was measured using a microplate reader, and the cell viability was quantified as a proportion (%) of the absorbance with respect to the absorbance of untreated cells. […]

In data set [2] the test system is CTNNB1 gene (β-catenin). Nature of the data set: Quantitative real-time PCR of hair growth-related gene CTNNB1 in HFDPCs. It is filed as cell-based, human. Further details: key to CTNNB1: -: Expression was suppressed.; ±: No significant difference was observed in the expression enhancing effects at at least some of the concentrations.; +: A significant difference with p < 0.05 or more was observed in the expression enhancing effects at all concentrations.; ++: A significant difference with p < 0.01 or more was observed in the expression enhancing effects at all concentrations. Particulars: for CTNNB1: extracts at a volume of 1/6,000 or 1/10,000 (Production Examples 1 and 6 at non-cytotoxic concentration), D-pinitol and shikimic acid at 1 µM and 10 µM; for expression enhancing effects for CTNNB1 (in words): summary of Table 5. How it is done: (§1) The pine needle extract of Production Example 1 was added to the culture medium for HFDPCs, and the expression of hair growth markers was measured by quantitative real-time PCR. As the hair growth markers, CTNNB1 gene (β-catenin), ALPL gene (alkaline phosphatase), and FGF1 gene (fiblobrast growth factor 1) were examined. It is known that β-catenin induces anagen of the hair cycle and promotes the proliferation of keratinocytes. ALPL is a representative hair growth marker in the hair papilla cells. FGF1 is a marker for morphogenesis of hair follicles. HFDPCs were seeded in a 6-well plate at a concentration of 5 × 10^4 cells/well and incubated at 37°C for 24 hours. Subsequently, the culture medium was removed and replaced with a culture medium containing a pine needle extract at a volume of 1/4,000 and 1/2,000. Furthermore, for a comparison, cells treated with a culture medium to which minoxidil (0.1 µM), an existing therapeutic agent for hair loss, was added, were also prepared. Subsequently, after 48 hours, the cells were washed with cold PBS, and total RNA was extracted using an ISOGEN kit (Nippon Gene Co., Ltd.). Subsequently, the total RNA was quantified using a NanoDrop 2000 spectrophotometer (Thermo Fisher Scientific, Inc.), and quantitative real-time PCR analysis was performed. […] Subsequently, real-time PCR was carried out using a 7500 Fast Real-Time PCR system (Software 1.3.1, Thermo Fisher Scientific, Inc.) and TaqMan probes specific for CTNNB1, ALPL, and FGF1. GAPDH was used as an endogenous control, and the 2^- △△Ct method was applied, to calculate the relative amount of mRNA in comparison with GAPDH. The effect of the pine needle extracts of Production Examples 3 to 6 on the hair growth-related genes was examined by the same method as that used in Experimental Example 6. Furthermore, the same examination was carried out for D-pinitol and shikimic acid. The pine needle extracts of Production Examples 3 to 6 were each added to the culture medium for cells at a volume of 1/6,000 or a volume of 1/10,000. The pine needle extracts of Production Examples 1 and 6 were each added to the culture medium for cells at a concentration at which cytotoxicity was not observed. D-pinitol was added to the culture medium for cells at 1 µM and 10 µM. Shikimic acid was added to the culture medium for cells at 1 µM and 10 µM. In the following Table 5, "CTNNB1", "ALPL", and "FGF1" indicate the evaluation results for the expression enhancing effects of each hair growth-related gene. […]
(Quantitative PCR measures a nucleic acid by following its amplification.)

For data set [3], the system named is ALPL gene (alkaline phosphatase). The data set can be described thus: Quantitative real-time PCR of hair growth-related gene ALPL in HFDPCs. In kind it is cell-based, human. Further details: key to ALPL: -: Expression was suppressed.; ±: No significant difference was observed in the expression enhancing effects at at least some of the concentrations.; +: A significant difference with p < 0.05 or more was observed in the expression enhancing effects at all concentrations.; ++: A significant difference with p < 0.01 or more was observed in the expression enhancing effects at all concentrations. Particulars: for ALPL: extracts at a volume of 1/6,000 or 1/10,000 (Production Examples 1 and 6 at non-cytotoxic concentration), D-pinitol and shikimic acid at 1 µM and 10 µM; for expression enhancing effects for ALPL (in words): summary of Table 5. How it is done:
as §1

In data set [4] the test system is FGF1 gene (fiblobrast growth factor 1). The data set can be described thus: Quantitative real-time PCR of hair growth-related gene FGF1 in HFDPCs. In kind it is cell-based, human. Further details: key to FGF1: -: Expression was suppressed.; ±: No significant difference was observed in the expression enhancing effects at at least some of the concentrations.; +: A significant difference with p < 0.05 or more was observed in the expression enhancing effects at all concentrations.; ++: A significant difference with p < 0.01 or more was observed in the expression enhancing effects at all concentrations. Particulars: for FGF1: extracts at a volume of 1/6,000 or 1/10,000 (Production Examples 1 and 6 at non-cytotoxic concentration), D-pinitol and shikimic acid at 1 µM and 10 µM; for expression enhancing effects for FGF1 (in words): summary of Table 5. On the procedure: as §1

A short description of data set [5]: Body weight and food intake during 7-day oral administration. It is filed as in vivo, ICR mouse. Particulars: 20 mg/kg bupropion oral, daily for 7 days. How it is done: In the following Table 6, "LPS" indicates lipopolysaccharide. Furthermore, bupropion administered to a positive control group is an antidepressant. The mice in each group were kept for 7 days to be acclimatized, and then a pine needle extract was orally administered daily for 7 days. Thereafter, neuroinflammation was induced in the brain by a single intraperitoneal administration of LPS, and depression was developed. A tail suspension test was performed the day after the administration of LPS. In the tail suspension test, a SMART 3.0 video image behavior analysis device (Panlab S.L.U.) was used. The brain was removed the day after the tail suspension test, and the hippocampus was further collected and used in the experiment that will be described later.

Regarding `CO[C@H]1[C@H](O)[C@@H](O)[C@@H](O)[C@H](O)[C@@H]1O` [D-pinitol], in data set [1], the Cytotoxicity result was “-”. Moreover, in data set [2], the CTNNB1 entry is “++” and the “expression enhancing effects for CTNNB1 (in words)” value was “exhibited expression enhancing effects”. In data set [3], the ALPL entry is “-” and the “expression enhancing effects for ALPL (in words)” value is listed as “did not exhibit expression enhancing effects”. Also, in data set [4], the FGF1 result is given as “++” and the “expression enhancing effects for FGF1 (in words)” value is on record as “exhibited expression enhancing effects”.

For the compound `CC(NC(C)(C)C)C(=O)c1cccc(Cl)c1` (stereo not drawn) [bupropion], in data set [5], the “Final body weight” value was 35.6 ± 0.7 g, the “Increase in body weight (g / 7 days)” value is listed as 2.9 ± 0.4 g / 7 days and the “Total amount of food intake (g / 7 days)” value is listed as 25.0 ± 1.2 g / 7 days. Also, the “Initial body weight” value in data set [5] (baseline) is given as 32.7 ± 0.8 g.

For the compound `O=C(O)C1=C[C@@H](O)[C@@H](O)[C@H](O)C1` [Shikimic acid], the Cytotoxicity entry in data set [1] is recorded as “-”. Besides, in data set [2], the CTNNB1 entry is on record as “+” and the “expression enhancing effects for CTNNB1 (in words)” value is reported as “exhibited expression enhancing effects”. In addition, in data set [3], the ALPL result is reported as “±” and the “expression enhancing effects for ALPL (in words)” value was “did not exhibit expression enhancing effects”. In data set [4], the FGF1 entry is given as “++” and the “expression enhancing effects for FGF1 (in words)” value was “exhibited expression enhancing effects”.
